Where two headings read alike, the source gives them in different places.
Columns and labels:
[1] = system: human inducible NO synthase (hiNOS) gene; assay: Expression of the human inducible NO synthase (hiNOS) gene, firefly luciferase reporter in A5 cells; type: cell-based; details: IL-1β (1 ng/ml)+TNF-α (500 ng/ml), firefly luciferase activity 24 hours later, read-out: IL-1β + TNF-α stimulation IC50 (inhibitory effect on the expression of the hiNOS gene)
Description: Experiment 1. Effect of compounds on the expression of the human inducible NO synthase (hiNOS) gene
The experiment was carried out using A5 cells (human lung carcinoma cell line A549 cells (ATCC, CCL185) stably transfected with NOS53+F) previously reported by the inventors (Nunokawa, Y. et al., (1997) Biochem. Biophys. Res. Commun. 233, 523-526).
Compounds described in Examples were added to A5 cells simultaneously with IL-1β (1 ng/ml)+TNF-α (500 ng/ml) to investigate the inhibitory effect on the firefly luciferase activity 24 hours later.
The activity of firefly luciferase was measured based on the protocol by the Luciferase Assay System (Promega, U.S.A.).
The inhibitory effect of the compounds claimed in the present invention on the expression of the hiNOS gene was expressed as IC50 value in Table 1.

[2] = system: NO production; assay: NO production of LPS-stimulated RAW264.7 cells (Griess' method); type: cell-based, mouse; details: LPS (10 μg/ml), 24 hours after the stimulation
Excerpt: (§1) Experiment 3. Effect of lipopolysaccharide (LPS) stimulation on NO and TNF-α production
(§2) When various cells are stimulated with LPS, NV-κB is activated which results in the expression and induction of proteins represented by NOS, TNF-α, and thereby the cells start to produce NO and/or TNF-α.
To determine the production of NO indirectly, the Griess' method utilizing a diazo reaction is useful (Green, L. C. et al., (1982) Anal. Biochem, 126, 131-138). In the Griess' method, the Griess' reagent prepared by mixing naphthylethylenediamine and sulfanilic acid is reacted with NO2^− ion in the culture medium, and the color development thereof is measured by an absorbance at 540 nm.
(§3) The inhibitory effect of these compounds was expressed as IC50 value in Table 3.

[3] = system: TNF-α production; assay: TNF-α production of LPS-stimulated RAW264.7 cells (ELISA); type: cell-based, mouse; details: RAW264.7 cells stimulated with LPS for 4 hours
Excerpt: as §1, §2, §3

[4] = system: sea pansy luciferase gene (pRL-SV40) under the control of SV40 promoter; assay: Sea pansy luciferase under SV40 promoter (NF-κB independent) in A5 cells; type: cell-based, human; details: no stimulation, compound at 1 μg/ml for 4 hours
Description: The activity of sea pansy luciferase was measured based on the protocol by the Dual Luciferase Reporter Assay System (Promega, U.S.A.).

[5] = system: rat models of carageenin foot pad edema; assay: Carrageenin foot pad edema in rats; type: in vivo; details: male Wistar rats, 1 mg/kg intraperitoneally 15 minutes before carrageenin
Description: FIG. 1 is a graph showing the result of Experiment 4 in which the compounds of Example 32 were studied using rat models of carageenin foot pad edema. Each point represents the mean±SE (n=5). Dunnett's test was carried out and the results are shown by * p<0.05 and ** p<0.01.
An aqueous solution of 1% λ-carrageenin (Wako Pure Chemical Industries) in physiological saline (0.1 ml) was intradermally administered to the pad of the left paw of 6-week old male Wistar rats weighing 149 g to 171 g, and changes in the volume of the paw were measured for indicated period. The test compound (0.3, 1 mg/kg) described in Example 32 was suspended in a solution of 0.5% hydroxypropyl cellulose in physiological saline (EPC, Nippon Soda Co., Ltd.) and was intraperitoneally given 15 minutes before the administration of carrageenin. For the control group, a solution of 0.5% HPC in physiological saline was used.

[6] = system: NF-κB; assay: NF-κB-controlled firefly luciferase in A549/NF-κBLuc cells; type: cell-based, human
Description: Experiment 2. Effect of compounds on A549 cells (A549/NF-κBLuc) stably transfected with luciferase plasmid (pNFκB-Luc) having the NF-κB regulatory sequence
Using lipofectamine (Lifetech oriental K.K., Tokyo), pNFκB-Luc (Stratagene, U.S.A.) were cotransfected with pSV2neo (Clontech, U.S.A.) into A549 cells according to the conventional method, and A549/NF-κBLuc stably transfected with pNFκB-Luc were selected by adding G418 sulfate ((1 mg/ml) Lifetech Oriental K.K.) to the culture medium.
NF-κB inhibiting activity was expressed as IC50 values in Table 2.

| Structure (SMILES) | IC50 ([1]; Homo sapiens) [nM] | IC50 ([2]; Mus musculus) [nM] | IC50 ([3]; Mus musculus) [nM] | further results |
| --- | --- | --- | --- | --- |
| CC(C)c1csc2ncnc(NC3Cc4ccccc4C3)c12 [Example 22, 4-(2-indanylamino)-5-isopropylthieno[2,3-d]pyrimidine] | 64 | 64 | 160 |  |
| Cc1noc2ncnc(NC3Cc4ccccc4C3)c12 [Example 10, 3-methyl-4-(2-indanylamino)isoxazolo[5,4-d]pyrimidine] |  |  |  | melting point: 208 °C |
| Cc1csc2ncnc(NC3Cc4ccc(C(=O)NCc5ccccc5)cc4C3)c12 (stereo not shown) [Example 31, N-benzyl-2-(5-methylthieno[2,3-d]pyrimidine-4-yl)amino-5-indan carboxamide] | 2.4 | 24 | 48 | influence on the activity of sea pansy luciferase [4]: had no influence |
| Cc1csc2ncnc(NC3Cc4ccccc4C3)c12 [Example 1, 4-(2-indanylamino)-5-methylthieno[2,3-d]pyrimidine] | 280 | 710 | 1100 |  |
| c1ccc2c(c1)CC(Nc1ncnc3nc[nH]c13)C2 [Example 37, 6-(2-indanylamino)purine] |  |  |  | melting point: ≥ 300 °C |
| Cc1csc2ncnc(NC3Cc4ccc(Oc5ccccc5)cc4C3)c12 (stereo not shown) [Example 25, 4-(5-phenoxyindan-2-yl)amino-5-methylthieno[2,3-d]pyrimidine] | 150 |  |  |  |
| Cc1csc2ncnc(NC3Cc4ccc(C(=O)N5CCOCC5)cc4C3)c12 (stereo not shown) [Example 32, 2-[5-methylthieno[2,3-d]pyrimidine-4-yl]aminoindan-5-carboxylic acid morpholinamide] |  |  |  | edema formation at 2 hours ([5]; 2 hours): significantly suppressed edema formation; edema suppression at 3 hours and after ([5]; 3 hours and after): high rate of edema suppression; IC50 [1]: 51 nM; influence on the activity of sea pansy luciferase [4]: had no influence; IC50 [2]: 25 nM; IC50 ([6]; IL-1β (1 ng/ml) for 4 hours, read-out: IL-1β stimulation IC50 (NF-κB inhibiting activity)): 51 nM; IC50 ([6]; TNF-α (500 ng/ml) for 4 hours, read-out: TNF-α stimulation IC50 (NF-κB inhibiting activity)): 89 nM; IC50 [3]: 51 nM |
| c1ccc2c(c1)CC(Nc1ncnc3occc13)C2 [Example 6, 4-(2-indanylamino)furo[2,3-d]pyrimidine] | 800 |  |  |  |
